For six molecules, IC50 results are on record in ChEMBL document CHEMBL5131533, “Indazole and Benzoisoxazole Compounds as Dihydroorotate Dehydrogenase Inhibitors for Treating Acute Myelogenous Leukemia” (ACS Med Chem Lett, 2022).

A word on the pIC50: it is the negative decadic logarithm of the IC50, by convention in mol/L. A high value points to a low IC50.

Assay [1] deals with MOLM-13. The assay can be described thus: Antiproliferative activity against human MOLM-13 cells incubated for 72 hrs by CellTiter-Glo based multilabel reader analysis. It is filed as functional, cell-based. As to conditions: MOLM-13, 72 h. Background: Cellular ATP, detected with luciferase, serves as a proxy for viable cell number.
Assay [2] concerns the target Dihydroorotate dehydrogenase (quinone), mitochondrial (Homo sapiens, UniProt Q02127). The assay is described as follows: Inhibition of human DHODH using dihydroorotate as substrate and Q6 as coenzyme by DCIP dye based spectrophotometry analysis.

pIC50: −log10 of the molar value.

Dihydroorotate dehydrogenase (quinone), mitochondrial, sequence (Q02127 whole entry): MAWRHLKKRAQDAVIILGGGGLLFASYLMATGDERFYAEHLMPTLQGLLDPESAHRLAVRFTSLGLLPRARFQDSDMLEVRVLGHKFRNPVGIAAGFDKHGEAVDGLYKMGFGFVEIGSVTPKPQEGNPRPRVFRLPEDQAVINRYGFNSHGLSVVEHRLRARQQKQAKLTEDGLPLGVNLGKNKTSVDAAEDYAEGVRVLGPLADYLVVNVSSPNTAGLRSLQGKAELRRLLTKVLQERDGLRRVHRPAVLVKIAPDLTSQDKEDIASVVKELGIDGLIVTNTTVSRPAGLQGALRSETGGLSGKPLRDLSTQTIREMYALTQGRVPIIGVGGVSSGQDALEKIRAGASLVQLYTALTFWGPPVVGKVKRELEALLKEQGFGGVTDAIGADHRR

In the case of `Cc1ccnc(Cl)c1Nc1nn(C)c2c(F)c(-c3cn(C)c(C(C)(C)O)n3)cc(O[C@@H](C)C(F)(F)F)c12`, the results for the negative logarithm of the IC50 (pIC50) in assay [1] and in assay [2] were 10.00 and 9.00, respectively.
For `CCn1c(CO)nn(-c2cc(O[C@@H](C)C(F)(F)F)c3c(Nc4c(C)ccnc4Cl)nn(C)c3c2F)c1=O`, the pIC50 is 8.24 in assay [1] and 8.70 in assay [2].
The corresponding values for `CCn1c(CO)nn(-c2cc(OC(C)C(F)(F)F)c3c(Nc4c(F)cccc4Cl)nn(C)c3c2F)c1=O` (configuration not stated) are 8.92 and 8.52.
In the same order, the values of `CCn1c(CO)nn(-c2cc(O[C@@H](C)C(F)(F)F)c3c(Nc4c(F)cccc4Cl)nn(C)c3c2F)c1=O` are 9.15 and 8.70.
The corresponding values for `CCn1c(CO)nn(-c2cc(O[C@@H](C)C(F)(F)F)c3c(Nc4c(F)cccc4Cl)noc3c2F)c1=O` are 9.15 and 8.70.
For the molecule `CCn1c(CO)nn(-c2cc(OC(C)C(F)(F)F)c3c(Nc4c(F)cccc4Cl)nn(C)c3c2)c1=O` (configuration not stated), the figures for the pIC50 in assay [1] and in assay [2] were 8.52 and 8.10, respectively.
